Molecules are shown by their SMILES. Structures can show the parent of a compound that is named as a salt.

Assay [1] deals with T1, human recombinant 5-HT2C receptor (Homo sapiens, UniProt P28335).
T1 construct: expressed in transfected cells; host or cells: CHO
T1 sequence (P28335 33-458): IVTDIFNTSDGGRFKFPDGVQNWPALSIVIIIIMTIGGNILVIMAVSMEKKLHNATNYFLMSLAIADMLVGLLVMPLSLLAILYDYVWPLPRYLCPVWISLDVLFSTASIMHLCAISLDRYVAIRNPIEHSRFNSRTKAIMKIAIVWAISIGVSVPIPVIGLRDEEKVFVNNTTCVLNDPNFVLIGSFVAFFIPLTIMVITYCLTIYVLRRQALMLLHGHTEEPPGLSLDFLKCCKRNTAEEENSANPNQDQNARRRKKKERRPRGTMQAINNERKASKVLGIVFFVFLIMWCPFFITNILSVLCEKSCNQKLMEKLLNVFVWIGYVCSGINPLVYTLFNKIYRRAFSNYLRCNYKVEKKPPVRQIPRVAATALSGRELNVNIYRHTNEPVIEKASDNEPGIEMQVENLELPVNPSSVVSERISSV
Nature of the assay: Affinity for 5-HT2C receptor binding sites (competitive radioligand binding, [3H]mesulergine). Particulars: membranes of CHO with h5-HT2C, * = tested as hydrochloride salt. The essentials:
(§1)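 Membranes from NIH3T3 cells stably expressing h5-HT2A or CHO cells stably expressing h5-HT2B/h5-HT2C; [3H]ketanserin used for 5-HT2A, [3H]mesulergine for 5-HT2B/2C. Compounds from 10 mM DMSO stocks, final DMSO ≤0.4%. Affinity from sigmoidal inhibition curves fitted by nonlinear regression.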

Assay [2] concerns the target T2, human recombinant 5-HT2B receptor (Homo sapiens, UniProt P41595).
T2 construct: expressed in transfected cells; host or cells: CHO
Nature of the assay: Affinity for 5-HT2B receptor binding sites (competitive radioligand binding, [3H]mesulergine). Conditions: membranes of CHO with h5-HT2B, * = tested as hydrochloride salt. The gist of the method: as §1

The target in assay [3] is T3, human recombinant 5-HT2A receptor (Homo sapiens, UniProt P28223).
T3 construct: expressed in transfected cells; host or cells: NIH3T3
Nature of the assay: Affinity for 5-HT2A receptor binding sites (competitive radioligand binding, [3H]ketanserin). Particulars: membranes of NIH3T3 with h5-HT2A, * = tested as hydrochloride salt. The gist of the method:
as §1

The target in assay [4] is T4, human recombinant 5-HT6 receptor (Homo sapiens, UniProt P50406).
T4 construct: expressed in transfected cells; host or cells: HEK-293
Nature of the assay: Affinity for 5-HT6 receptor binding sites (competitive radioligand binding, [3H]LSD). Particulars: membranes of HEK-293 with h5-HT6, * = tested as hydrochloride salt. The essentials:
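Membranes from HEK-293 cells stably expressing human 5-HT6, competition against [3H]LSD; nonspecific binding defined with 1 μM clozapine. DMSO ≤0.4% final. Inhibition curves fitted by nonlinear regression.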

Assay [5] deals with T5, rat 5-HT7a receptor (Rattus norvegicus, UniProt P32305).
T5 construct: expressed in transfected cells; host or cells: HEK-293
Nature of the assay: Affinity for 5-HT7 receptor binding sites (competition radioligand binding, [3H]5-CT). Conditions: membranes of HEK-293 cells with rat 5-HT7a; 1 nM [3H]5-CT; * = tested as hydrochloride salt. The protocol: Stock drug solutions (10 mM) were prepared in DMSO (the final assay concentration of DMSO not exceeding 0.4%). Drug dilutions were prepared in assay buffer.
Sigmoidal inhibition curves were generated and fitted by nonlinear regression analysis (GraphPad Prism).
1. Affinity for 5-HT7 Receptor Binding Sites
The affinity of the compounds described in this invention for the 5-HT7 receptor binding site was evaluated by single competition radioligand binding assay. The assay was performed on membranes prepared from HEK-293 cells that had been subjected to stable transfection with the rat 5-HT7a receptor (GB: NM022938). Cells were scraped from the culture plates, suspended in Tris-HCl 50 mM pH 7.5 and collected through centrifugation (1000 rpm for 5 min). The cell pellets were homogenized (Polytron, 15 s, setting 5) in 50 mM Tris-HCl (pH 7.5), 5 mM EDTA. Following centrifugation (15,000 rpm for 25 min), membranes (135 μg protein/mL) were resuspended in the same buffer and incubated for 60 min at RT with 1 nM [^3H]5-CT in the presence of increasing concentration of test compounds. Nonspecific binding was defined in the presence of 10 μM 5-HT. Incubation was stopped by rapid filtration using the cell harvester (Packard). Radioactivity was counted in a TopCount-NXT (Packard). Experiments were conducted in triplicate.

T2 sequence (P41595 whole entry): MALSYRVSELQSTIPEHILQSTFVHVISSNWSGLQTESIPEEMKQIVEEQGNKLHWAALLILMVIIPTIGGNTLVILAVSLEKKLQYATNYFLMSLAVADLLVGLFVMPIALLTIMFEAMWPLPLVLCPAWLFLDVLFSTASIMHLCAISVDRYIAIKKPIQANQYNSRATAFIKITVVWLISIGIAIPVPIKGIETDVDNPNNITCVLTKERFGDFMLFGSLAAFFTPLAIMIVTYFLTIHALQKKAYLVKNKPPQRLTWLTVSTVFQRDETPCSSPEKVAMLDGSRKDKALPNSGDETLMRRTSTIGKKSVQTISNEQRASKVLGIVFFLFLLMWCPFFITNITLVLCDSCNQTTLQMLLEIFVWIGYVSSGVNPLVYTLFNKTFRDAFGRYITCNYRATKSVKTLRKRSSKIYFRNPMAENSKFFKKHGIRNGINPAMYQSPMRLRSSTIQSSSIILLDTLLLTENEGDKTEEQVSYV
T3 sequence (P28223 whole entry): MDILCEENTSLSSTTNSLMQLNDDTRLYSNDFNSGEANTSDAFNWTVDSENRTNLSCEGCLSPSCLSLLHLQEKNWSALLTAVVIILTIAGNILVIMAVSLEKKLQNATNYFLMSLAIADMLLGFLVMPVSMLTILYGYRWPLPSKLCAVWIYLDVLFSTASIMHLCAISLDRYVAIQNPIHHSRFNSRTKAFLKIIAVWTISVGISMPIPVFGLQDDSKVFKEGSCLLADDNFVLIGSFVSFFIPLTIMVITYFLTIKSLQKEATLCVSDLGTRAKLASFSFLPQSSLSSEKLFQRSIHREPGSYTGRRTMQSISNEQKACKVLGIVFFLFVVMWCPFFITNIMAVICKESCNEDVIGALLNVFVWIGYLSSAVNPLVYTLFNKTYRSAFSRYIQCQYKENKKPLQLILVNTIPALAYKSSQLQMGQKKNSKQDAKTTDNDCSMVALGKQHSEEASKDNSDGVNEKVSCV
T5 sequence (P32305 whole entry): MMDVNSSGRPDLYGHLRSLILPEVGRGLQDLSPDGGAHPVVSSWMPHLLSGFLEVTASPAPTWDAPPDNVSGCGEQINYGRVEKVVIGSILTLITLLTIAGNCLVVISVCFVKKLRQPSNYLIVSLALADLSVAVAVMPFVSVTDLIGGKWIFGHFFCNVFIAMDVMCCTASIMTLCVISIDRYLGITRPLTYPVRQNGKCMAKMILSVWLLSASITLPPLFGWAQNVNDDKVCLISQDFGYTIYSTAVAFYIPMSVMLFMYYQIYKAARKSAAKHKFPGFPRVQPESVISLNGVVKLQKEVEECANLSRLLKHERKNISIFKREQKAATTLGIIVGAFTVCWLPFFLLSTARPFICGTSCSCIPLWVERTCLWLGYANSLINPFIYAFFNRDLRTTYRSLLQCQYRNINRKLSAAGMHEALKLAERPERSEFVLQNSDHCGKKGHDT
T4 sequence (P50406 whole entry): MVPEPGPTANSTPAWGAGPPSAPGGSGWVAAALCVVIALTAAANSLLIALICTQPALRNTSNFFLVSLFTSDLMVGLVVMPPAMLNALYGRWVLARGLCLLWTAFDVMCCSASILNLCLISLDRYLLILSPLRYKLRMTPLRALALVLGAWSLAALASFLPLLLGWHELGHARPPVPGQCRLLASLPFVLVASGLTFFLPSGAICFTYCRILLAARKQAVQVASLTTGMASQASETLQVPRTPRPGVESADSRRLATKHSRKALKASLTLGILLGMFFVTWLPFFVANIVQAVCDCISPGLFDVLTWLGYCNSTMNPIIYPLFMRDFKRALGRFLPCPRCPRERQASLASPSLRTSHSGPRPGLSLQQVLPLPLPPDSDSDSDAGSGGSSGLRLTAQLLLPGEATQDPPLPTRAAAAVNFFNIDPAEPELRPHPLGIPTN

`Cc1ccc(-c2nc(N3CCCCC3C)nc3c2CCCNC3)cc1` (centres unmarked) [Example 8, 2-(2-Methyl-piperidin-1-yl)-4-p-tolyl-6,7,8,9-tetrahydro-5H-pyrimido[4,5-c]azepine]: the Ki (commonly a measure of affinity in units of concentration, obtained from inhibition or displacement) was 2000 nM in assay [1]; 100 nM in assay [2]; 180 nM in assay [3]; 68 nM in assay [4]; 500 nM in assay [5].
The like results for `C[C@H]1COCCN1c1nc2c(c(-c3ccc(F)cc3)n1)CNCC2` [Example 45, 4-(4-Fluoro-phenyl)-2-(3-methyl-morpholin-4-yl)-5,6,7,8-tetrahydro-pyrido[4,3-d]pyrimidine] were, in that order, 2500 nM, 1200 nM, 24 nM, 3390 nM and more than 10000 nM.
The like results for `Cc1ccc(-c2nc(N3CCCC3)nc3c2CN(C)CC3)cc1` [Example 52, 6-Methyl-2-pyrrolidin-1-yl-4-p-tolyl-5,6,7,8-tetrahydro-pyrido[4,3-d]pyrimidine] were, in that order, 500 nM, 500 nM, 120 nM, 977 nM and more than 10000 nM.
The like results for `CC1CCCCN1c1nc2c(c(-c3ccc(F)cc3)n1)CCCNC2` (centres unmarked) [Example 6, 4-(4-Fluoro-phenyl)-2-(2-methyl-piperidin-1-yl)-6,7,8,9-tetrahydro-5H-pyrimido[4,5-c]azepine] were, in that order, 1000 nM, 200 nM, 200 nM, 310 nM and more than 10000 nM.
For the compound `Cc1ccc(-c2nc(NCc3ccccc3)nc3c2CNCC3)cc1` [Example 51, Benzyl-(4-p-tolyl-5,6,7,8-tetrahydro-pyrido[4,3-d]pyrimidin-2-yl)-amine], the inhibition constant (Ki) in assay [1] turned out to be 100 nM; in assay [2] it was 700 nM; in assay [3], 75 nM; in assay [4], 912 nM; in assay [5] it was 320 nM.
Turning to `Cc1ccc(-c2nc(N3CCCCC3)nc3c2CNCC3)cc1` [Example 50, 2-Piperidin-1-yl-4-p-tolyl-5,6,7,8-tetrahydro-pyrido[4,3-d]pyrimidine], the inhibition constant (Ki) in assay [1] came out at 130 nM; in assay [2], 160 nM; in assay [3] it was 30 nM; in assay [4], 776 nM; in assay [5] it was 350 nM.
The like results for `CC1CCCN1c1nc2c(c(-c3ccc(F)cc3)n1)CNCC2` (centres unmarked) [Example 38, 4-(4-Fluoro-phenyl)-2-(2-methyl-pyrrolidin-1-yl)-5,6,7,8-tetrahydro-pyrido[4,3-d]pyrimidine hydrochloride] were, in that order, 65 nM, 50 nM, 1.9 nM, 1950 nM and more than 10000 nM.
The like results for `CCN(CC)c1nc2c(c(-c3ccc(OC)cc3)n1)CCCNC2` [Example 3, Diethyl-[4-(4-methoxy-phenyl)-6,7,8,9-tetrahydro-5H-pyrimido[4,5-c]azepin-2-yl]-amine] were, in that order, 400 nM, 20 nM, 200 nM, 160 nM and 240 nM.
With `CCNc1nc2c(c(-c3ccc(C)cc3)n1)CNCC2` [Example 48, Ethyl-(4-p-tolyl-5,6,7,8-tetrahydro-pyrido[4,3-d]pyrimidin-2-yl)-amine], the Ki is more than 10000 nM in assay [1]; 3000 nM in assay [2]; 2000 nM in assay [3]; more than 10000 nM in assay [4]; more than 10000 nM in assay [5].
Turning to `CCN(CC)c1nc2c(c(-c3ccc(F)cc3)n1)CCNC2` [Example 24, Diethyl-[4-(4-fluoro-phenyl)-5,6,7,8-tetrahydro-pyrido[3,4-d]pyrimidin-2-yl]-amine], the Ki in assay [1] came to 120 nM; in assay [2], 7 nM; in assay [3] it was 3 nM; in assay [4], 933 nM; in assay [5], 50 nM.
The like results for `CCN(CC)c1nc2c(c(-c3ccc(C)cc3)n1)CCNC2` [Example 26, Diethyl-(4-p-tolyl-5,6,7,8-tetrahydro-pyrido[3,4-d]pyrimidin-2-yl)-amine] were, in that order, 200 nM, 13 nM, 7 nM, 316 nM and 100 nM.
The like results for `CCN(CC)c1nc2c(c(-c3ccc(F)cc3)n1)CCCNC2` [Example 1, Diethyl-[4-(4-fluoro-phenyl)-6,7,8,9-tetrahydro-5H-pyrimido[4,5-c]azepin-2-yl]-amine] were, in that order, 300 nM, 32 nM, 20 nM, 2260 nM and 470 nM.
The like results for `CCN(CC)c1nc2c(c(-c3ccncc3)n1)CCNCC2` [Example 10, Diethyl-(4-pyridin-4-yl-6,7,8,9-tetrahydro-5H-pyrimido[4,5-d]azepin-2-yl)-amine hydrochloride] were, in that order, more than 10000 nM, 50 nM, 500 nM, 1460 nM and 1200 nM.
Consider `Fc1ccc(-c2nc(N3CCOCC3)nc3c2CNCC3)cc1` [Example 42, 4-(4-Fluoro-phenyl)-2-morpholin-4-yl-5,6,7,8-tetrahydro-pyrido[4,3-d]pyrimidine], for which the Ki in assay [1] was 500 nM; in assay [2] it was 2050 nM; in assay [3] it was 20 nM; in assay [4], 9770 nM; in assay [5] it was more than 10000 nM.
In the case of `CCN(CC)c1nc2c(c(-c3ccc(F)cc3)n1)CCN(Cc1ccccc1)C2` [Example 23, [7-Benzyl-4-(4-fluoro-phenyl)-5,6,7,8-tetrahydro-pyrido[3,4-d]pyrimidin-2-yl]-diethyl-amine], the inhibition constant Ki in assay [1] is 2800 nM; in assay [2] it was 350 nM; in assay [3], 60 nM; in assay [5], 620 nM.
The like results for `COc1ccc(-c2nc(N3CCCCCC3)nc3c2CCN(Cc2ccccc2)C3)cc1` [Example 35, 2-Azepan-1-yl-7-benzyl-4-(4-methoxy-phenyl)-5,6,7,8-tetrahydro-pyrido[3,4-d]pyrimidine] were, in that order, more than 10000 nM, 700 nM, more than 10000 nM and more than 10000 nM.
The like results for `Fc1ccc(-c2nc(N3CCCCCC3)nc3c2CCN(Cc2ccccc2)C3)cc1` [Example 31, 2-Azepan-1-yl-7-benzyl-4-(4-fluoro-phenyl)-5,6,7,8-tetrahydro-pyrido[3,4-d]pyrimidine] were, in that order, 3200 nM, 1600 nM, 230 nM and more than 10000 nM.
The like results for `N#Cc1ccc(-c2nc(N3CCCCCC3)nc3c2CCN(Cc2ccccc2)C3)cc1` [Example 37, 4-(2-Azepan-1-yl-7-benzyl-5,6,7,8-tetrahydro-pyrido[3,4-d]pyrimidin-4-yl)-benzonitrile] were, in that order, more than 10000 nM, 1300 nM, 2400 nM and more than 10000 nM.
On to `CCN(CC)c1nc2c(c(-c3ccc(Cl)cc3)n1)CNCCC2` [Example 59, [4-(4-Chloro-phenyl)-6,7,8,9-tetrahydro-5H-1,3,6-triaza-benzocyclohepten-2-yl]-diethyl-amine hydrochloride], for which the results for the inhibition constant Ki in assay [4] and in assay [5] were 1480 nM and more than 10000 nM, respectively.
Consider `CCN(CC)c1nc2c(c(-c3ccc(OC)cc3)n1)CCN(Cc1ccccc1)C2` [Example 27, [7-Benzyl-4-(4-methoxy-phenyl)-5,6,7,8-tetrahydro-pyrido[3,4-d]pyrimidin-2-yl]-diethyl-amine], for which the inhibition constant Ki was more than 10000 nM in assay [1], 660 nM in assay [2], 1700 nM in assay [3] and more than 10000 nM in assay [5].
